According to article PMC7413254 (Nature Communications, 2020):
Read-outs that look alike come from different tables or passages of the source.

Columns and labels:
non-expressing oocytes [1] = experiment: cells; type: cell-based, Xenopus laevis; settings: non-expressing oocytes, total [3H]CQ transport, normalised to the oocyte type control
Summary of the method: (§1)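 Assay buffer ND96 (10 mM MES, 10 mM Tris-base) held at pH 5.5 to mimic vacuole lumen; uptake measured inward from this acidic medium over 1.5 h at 27.5 °C.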

PfCRT^3D7 [2] = molecular target: T1, PfCRT^3D7 (Plasmodium falciparum, UniProt Q8IBZ9); experiment: cell-based; type: cell-based; settings: PfCRT3D7 oocytes, total [3H]CQ transport, normalised to the oocyte type control
Summary of the method: as §1

PfCRT^Dd2 [3] = molecular target: T2, PfCRT^Dd2 (Plasmodium falciparum, UniProt Q9N623, A220S/I356T/K76T/M74I/N326S/N75E/Q271E/R371I); experiment: [3H]CQ uptake into Xenopus oocytes, cis-inhibition by unlabelled solute; type: cell-based; settings: PfCRTDd2 oocytes, background [3H]CQ accumulation subtracted, normalised to oocyte type control
Summary of the method: as §1

PfCRT^Ecu1110 [4] = molecular target: T3, PfCRT^Ecu1110 (Plasmodium falciparum, UniProt Q9N623, A220S/I356L/K76T/N326D); experiment: as above; type: cell-based; settings: for Uptake of [3H]CQ (% PfCRTEcu1110 control), cis-inhibition / PfCRT-mediated [3H]CQ transport, cis-inhibition (% PfCRTEcu1110 control): PfCRTEcu1110 oocytes; for Uptake of [3H]CQ (% PfCRTEcu1110 control), cis-inhibition: total [3H]CQ transport, normalised to the oocyte type control; for PfCRT-mediated [3H]CQ transport, cis-inhibition (% PfCRTEcu1110 control): background [3H]CQ accumulation subtracted, normalised to oocyte type control; for [3H]CQ transport (% PfCRTEcu1110 control), cis-inhibition, PfCRTEcu1110: PfCRT-mediated component (background subtracted), sheet title says normalised to PfCRTDd2 control, mean ± SEM, SEM
Summary of the method: as §1

non-expressing oocytes [5] = type: cell-based, Xenopus laevis; settings: non-expressing oocytes, total [3H]CQ transport, normalised to the oocyte type control
Summary of the method: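 Oocytes (ten per treatment, ≥4 independent frogs/days) were preloaded by injecting VF-6 in 25 nL ND96 at pH 5.0, 5.5, 6.0 or 7.0, or Na^+-free choline buffer, then uptake run 1.5 h, 27.5 °C, ND96 pH 5.5 by default. Internal concentrations assumed ~400 nL oocyte volume.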

PfCRT^3D7 [6] = molecular target: T1, PfCRT^3D7; experiment: cell-based; type: cell-based; settings: PfCRT3D7 oocytes; for Uptake of [3H]CQ (% PfCRT3D7 control), trans-stimulation: total [3H]CQ transport, normalised to the oocyte type control; for PfCRT-mediated [3H]CQ transport, trans-stimulation (% PfCRT3D7 control): normalised to oocyte type control
Summary of the method: (§2)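 Transport measured in Xenopus oocytes expressing the transporters, 1.5 h at 27.5 °C in ND96 pH 5.5 unless noted. For trans-stimulation, VF-6 injected in 25 nL ND96 at pH 5.0–7.0 or Na^+-free (choline) buffer; intracellular levels based on ~400 nL oocyte volume. Ten oocytes per treatment, ≥4 experiments.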

PfCRT^Dd2 [7] = molecular target: T2, PfCRT^Dd2; experiment: cell-based; type: cell-based; settings: for Uptake of [3H]CQ (% PfCRTDd2 control), trans-stimulation / PfCRT-mediated [3H]CQ transport, trans-stimulation (% PfCRTDd2 control): PfCRTDd2 oocytes; for Uptake of [3H]CQ (% PfCRTDd2 control), trans-stimulation: total [3H]CQ transport, normalised to the oocyte type control; for PfCRT-mediated [3H]CQ transport, trans-stimulation (% PfCRTDd2 control): normalised to oocyte type control; for [3H]CQ transport (% PfCRTDd2 control), trans-stimulation, PfCRTDd2: PfCRT-mediated component (background subtracted), mean ± SEM, SEM
Summary of the method: as §2

PfCRT^Ecu1110 [8] = molecular target: T3, PfCRT^Ecu1110; experiment: cell-based; type: cell-based; settings: for Uptake of [3H]CQ (% PfCRTEcu1110 control), trans-stimulation / PfCRT-mediated [3H]CQ transport, trans-stimulation (% PfCRTEcu1110 control): PfCRTEcu1110 oocytes; for Uptake of [3H]CQ (% PfCRTEcu1110 control), trans-stimulation: total [3H]CQ transport, normalised to the oocyte type control; for PfCRT-mediated [3H]CQ transport, trans-stimulation (% PfCRTEcu1110 control): normalised to oocyte type control; for [3H]CQ transport (% PfCRTDd2 control), trans-stimulation, PfCRTEcu1110: PfCRT-mediated component (background subtracted), sheet title says normalised to PfCRTDd2 control, mean ± SEM, SEM
Summary of the method: as §2

PfNT1 = molecular target: T4, PfNT1 (Plasmodium falciparum, UniProt Q8IDM6); experiment: cell-based; type: cell-based; settings: PfNT1 oocytes, total [3H]CQ transport, normalised to the oocyte type control
T4 construct: expressed in transfected cells; host or cells: Xenopus laevis oocytes (stage V-VI), cRNA-injected
Summary of the method: as §2

[9] = [test solute]i = 45 mM (30 mM for some solutes due to solubility)
[10] = [test solute]i = 5 mM (intracellular)
[11] = [test solute]i = 45 mM (intracellular; 30 mM for some solutes due to solubility)
[12] = [test solute]i = 5 mM (injected)

T2 sequence (Q9N623 whole entry A220S/I356T/K76T/M74I/N326S/N75E/Q271E/R371I): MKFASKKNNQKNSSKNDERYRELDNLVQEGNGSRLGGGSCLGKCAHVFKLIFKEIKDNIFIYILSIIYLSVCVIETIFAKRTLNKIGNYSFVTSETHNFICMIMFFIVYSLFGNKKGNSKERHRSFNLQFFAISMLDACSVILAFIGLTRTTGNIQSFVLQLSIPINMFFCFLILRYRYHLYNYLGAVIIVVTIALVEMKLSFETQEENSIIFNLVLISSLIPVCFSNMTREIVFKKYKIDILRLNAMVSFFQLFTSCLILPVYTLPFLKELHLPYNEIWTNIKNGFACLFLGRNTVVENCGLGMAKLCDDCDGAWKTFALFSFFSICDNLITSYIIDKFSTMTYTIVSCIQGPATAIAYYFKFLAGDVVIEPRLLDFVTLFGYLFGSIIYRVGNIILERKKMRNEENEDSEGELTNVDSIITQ
T3 sequence (Q9N623 whole entry A220S/I356L/K76T/N326D): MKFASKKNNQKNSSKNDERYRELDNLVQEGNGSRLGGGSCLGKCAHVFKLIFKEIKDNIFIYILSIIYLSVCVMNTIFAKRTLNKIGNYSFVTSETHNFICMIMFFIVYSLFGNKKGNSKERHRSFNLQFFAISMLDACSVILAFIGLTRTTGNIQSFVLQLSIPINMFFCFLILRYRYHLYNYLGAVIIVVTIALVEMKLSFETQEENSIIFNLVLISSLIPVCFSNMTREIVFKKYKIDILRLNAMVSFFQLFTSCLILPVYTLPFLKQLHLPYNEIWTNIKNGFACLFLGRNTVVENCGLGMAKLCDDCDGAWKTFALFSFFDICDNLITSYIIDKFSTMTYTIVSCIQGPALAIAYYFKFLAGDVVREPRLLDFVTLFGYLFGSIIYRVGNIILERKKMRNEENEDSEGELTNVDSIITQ
T1 sequence (Q8IBZ9 59-398): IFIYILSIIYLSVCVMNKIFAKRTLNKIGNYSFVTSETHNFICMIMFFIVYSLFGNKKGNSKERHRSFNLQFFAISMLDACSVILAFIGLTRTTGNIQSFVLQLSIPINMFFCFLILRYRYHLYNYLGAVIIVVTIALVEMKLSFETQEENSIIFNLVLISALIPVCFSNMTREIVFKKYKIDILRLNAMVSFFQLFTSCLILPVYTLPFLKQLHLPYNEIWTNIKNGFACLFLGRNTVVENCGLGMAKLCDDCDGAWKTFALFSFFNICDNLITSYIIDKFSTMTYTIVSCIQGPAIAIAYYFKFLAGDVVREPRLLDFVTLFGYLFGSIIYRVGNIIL
T4 sequence (Q8IDM6 whole entry): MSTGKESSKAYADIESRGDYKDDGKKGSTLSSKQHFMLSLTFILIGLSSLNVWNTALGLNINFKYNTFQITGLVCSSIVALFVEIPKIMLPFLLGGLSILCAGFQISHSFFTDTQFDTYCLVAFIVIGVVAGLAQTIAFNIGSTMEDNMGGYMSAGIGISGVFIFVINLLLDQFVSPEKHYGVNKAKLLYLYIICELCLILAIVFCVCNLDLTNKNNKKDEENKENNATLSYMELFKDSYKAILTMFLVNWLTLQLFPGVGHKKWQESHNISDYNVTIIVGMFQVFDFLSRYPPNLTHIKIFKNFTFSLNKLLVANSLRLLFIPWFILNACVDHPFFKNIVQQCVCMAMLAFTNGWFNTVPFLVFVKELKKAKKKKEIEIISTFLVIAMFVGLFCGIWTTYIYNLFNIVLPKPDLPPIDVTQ

Substance: DPVN [DN-4]
- Uptake of [3H]CQ (% non-expressing oocyte control), cis-inhibition (non-expressing oocytes [1]; [test solute] = 0.5 mM): 98 ± 4.6 % non-expressing oocyte control
- Uptake of [3H]CQ (% non-expressing oocyte control), cis-inhibition (non-expressing oocytes [1]; [test solute] = 1 mM): 99 ± 4.7 % non-expressing oocyte control
- Uptake of [3H]CQ (% non-expressing oocyte control), cis-inhibition (non-expressing oocytes [1]; [test solute] = 2 mM): 99 ± 3.7 % non-expressing oocyte control
- Uptake of [3H]CQ (% PfCRT3D7 control), cis-inhibition (PfCRT^3D7 [2]; [test solute] = 0.5 mM): 100 ± 2.6 % PfCRT3D7 control
- Uptake of [3H]CQ (% PfCRT3D7 control), cis-inhibition (PfCRT^3D7 [2]; [test solute] = 1 mM): 100 ± 3.7 % PfCRT3D7 control
- Uptake of [3H]CQ (% PfCRT3D7 control), cis-inhibition (PfCRT^3D7 [2]; [test solute] = 2 mM): 100 ± 4.8 % PfCRT3D7 control
- PfCRT-mediated [3H]CQ transport, cis-inhibition (% PfCRTDd2 control) (PfCRT^Dd2 [3]; [test solute] = 0.5 mM): 63 ± 3.1 % PfCRTDd2 control
- PfCRT-mediated [3H]CQ transport, cis-inhibition (% PfCRTDd2 control) (PfCRT^Dd2 [3]; [test solute] = 1 mM): 47 ± 3.1 % PfCRTDd2 control
- PfCRT-mediated [3H]CQ transport, cis-inhibition (% PfCRTDd2 control) (PfCRT^Dd2 [3]; [test solute] = 2 mM): 42 ± 3.2 % PfCRTDd2 control
- Uptake of [3H]CQ (% PfCRTEcu1110 control), cis-inhibition (PfCRT^Ecu1110 [4]; [test solute] = 0.5 mM): 73 ± 4.4 % PfCRTEcu1110 control
- Uptake of [3H]CQ (% PfCRTEcu1110 control), cis-inhibition (PfCRT^Ecu1110 [4]; [test solute] = 1 mM): 66 ± 3.8 % PfCRTEcu1110 control
- Uptake of [3H]CQ (% PfCRTEcu1110 control), cis-inhibition (PfCRT^Ecu1110 [4]; [test solute] = 2 mM): 52 ± 3.3 % PfCRTEcu1110 control
- PfCRT-mediated [3H]CQ transport, cis-inhibition (% PfCRTEcu1110 control) (PfCRT^Ecu1110 [4]; [test solute] = 1 mM): 61 ± 2.9 % PfCRTEcu1110 control
- PfCRT-mediated [3H]CQ transport, cis-inhibition (% PfCRTEcu1110 control) (PfCRT^Ecu1110 [4]; [test solute] = 2 mM): 48 ± 2.4 % PfCRTEcu1110 control
- [3H]CQ transport (% PfCRTEcu1110 control), cis-inhibition, PfCRTEcu1110 (PfCRT^Ecu1110 [4]; [test solute] = 0.5 mM): 21 ± 0.6 % PfCRTEcu1110 control
- [3H]CQ transport (% PfCRTEcu1110 control), cis-inhibition, PfCRTEcu1110 (PfCRT^Ecu1110 [4]; [test solute] = 1 mM): 19 ± 0.4 % PfCRTEcu1110 control
- [3H]CQ transport (% PfCRTEcu1110 control), cis-inhibition, PfCRTEcu1110 (PfCRT^Ecu1110 [4]; [test solute] = 2 mM): 15 ± 0.1 % PfCRTEcu1110 control
- Uptake of [3H]CQ (% non-expressing oocyte control), trans-stimulation (non-expressing oocytes [5]; [test solute]i = 5 mM): 99 ± 4.8 % non-expressing oocyte control
- Uptake of [3H]CQ (% non-expressing oocyte control), trans-stimulation (non-expressing oocytes [5]; [9]): 99 ± 1.0 % non-expressing oocyte control
- Uptake of [3H]CQ (% PfCRT3D7 control), trans-stimulation (PfCRT^3D7 [6]; [test solute]i = 5 mM): 121 ± 3.4 % PfCRT3D7 control
- Uptake of [3H]CQ (% PfCRT3D7 control), trans-stimulation (PfCRT^3D7 [6]; [9]): 153 ± 5.0 % PfCRT3D7 control
- PfCRT-mediated [3H]CQ transport, trans-stimulation (% PfCRT3D7 control) (PfCRT^3D7 [6]; [10]): 116 ± 2.3 % PfCRT3D7 control
- PfCRT-mediated [3H]CQ transport, trans-stimulation (% PfCRT3D7 control) (PfCRT^3D7 [6]; [11]): 147 ± 4.2 % PfCRT3D7 control
- Uptake of [3H]CQ (% PfCRTDd2 control), trans-stimulation (PfCRT^Dd2 [7]; [test solute]i = 5 mM): 103 ± 1.1 % PfCRTDd2 control
- Uptake of [3H]CQ (% PfCRTDd2 control), trans-stimulation (PfCRT^Dd2 [7]; [9]): 100 ± 3.8 % PfCRTDd2 control
- PfCRT-mediated [3H]CQ transport, trans-stimulation (% PfCRTDd2 control) (PfCRT^Dd2 [7]; [10]): 99 ± 4.1 % PfCRTDd2 control
- PfCRT-mediated [3H]CQ transport, trans-stimulation (% PfCRTDd2 control) (PfCRT^Dd2 [7]; [11]): 98 ± 3.9 % PfCRTDd2 control
- [3H]CQ transport (% PfCRTDd2 control), trans-stimulation, PfCRTDd2 (PfCRT^Dd2 [7]; [12]): 99 ± 4.1 % PfCRTDd2 control
- [3H]CQ transport (% PfCRTDd2 control), trans-stimulation, PfCRTDd2 (PfCRT^Dd2 [7]; [9]): 98 ± 3.9 % PfCRTDd2 control
- Uptake of [3H]CQ (% PfCRTEcu1110 control), trans-stimulation (PfCRT^Ecu1110 [8]; [test solute]i = 5 mM): 105 ± 3.6 % PfCRTEcu1110 control
- Uptake of [3H]CQ (% PfCRTEcu1110 control), trans-stimulation (PfCRT^Ecu1110 [8]; [9]): 100 ± 2.2 % PfCRTEcu1110 control
- PfCRT-mediated [3H]CQ transport, trans-stimulation (% PfCRTEcu1110 control) (PfCRT^Ecu1110 [8]; [10]): 102 ± 2.3 % PfCRTEcu1110 control
- PfCRT-mediated [3H]CQ transport, trans-stimulation (% PfCRTEcu1110 control) (PfCRT^Ecu1110 [8]; [11]): 98 ± 3.2 % PfCRTEcu1110 control
- [3H]CQ transport (% PfCRTDd2 control), trans-stimulation, PfCRTEcu1110 (PfCRT^Ecu1110 [8]; [12]): 31 ± 1.4 % PfCRTEcu1110 control
- [3H]CQ transport (% PfCRTDd2 control), trans-stimulation, PfCRTEcu1110 (PfCRT^Ecu1110 [8]; [9]): 30 ± 1.4 % PfCRTEcu1110 control
- Uptake of [3H]CQ (% PfNT1 control), trans-stimulation (PfNT1; [test solute]i = 5 mM): 100 ± 3.2 % PfNT1 control
- Uptake of [3H]CQ (% PfNT1 control), trans-stimulation (PfNT1; [9]): 99 ± 3.2 % PfNT1 control
